Starred links: 1 amine or outer side, 2 acyl side, 3 side chain; linkers in the order of their positions; H or OH if unused. Non-standard residues stand in square brackets, D forms with d. Residues, ends and D or L forms follow the SMILES beside them. Groups on a side chain read outwards from the residue. *: point of attachment. C18 diacid = O=C(O)CCCCCCCCCCCCCCCCC(=O)*; γGlu = O=C(O)[C@H](CCC(=O)[*:2])N[*:1]; αMeF = C[C@](N)(Cc1ccccc1)C(=O)O; AEEA = NCCOCCOCC(=O)O; Aib = CC(C)(N)C(=O)O
Legend:
[1] = biological target: human glucagon receptor (hGCGR) (Homo sapiens, UniProt P47871); assay: cAMP production (HTRF) in CHO cells expressing hGCGR; type: cell-based; parameters: expressed in transfected cells; settings: Table 6, peptides modified at position 17; cAMP in CHO hGCGR cells; geometric mean; read-out: hGluc-R EC50
Outline: (§1)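 Potency values represent EC50 from 4-parameter logistic curves of HTRF % Delta F signal. Receptor-expressing CHO cells (hGCGR 2×10^5 cells/mL, hGLP-1R 1×10^5 cells/mL) were exposed for 30 min at room temperature before two-step cAMP detection.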

[2] = biological target: human GLP-1 receptor (hGLP-1R) (Homo sapiens, UniProt P43220); assay: cAMP production (HTRF) in CHO cells expressing hGLP-1R; type: cell-based; parameters: expressed in transfected cells; settings: for EC50: Table 6, peptides modified at position 17, cAMP in CHO hGLP-1R cells, geometric mean, read-out: hGLP-1R EC50; for % Relative Potency Ratio: Table 6, % GLP-1R activity relative to GLP-1 / % GlucR activity relative to glucagon
Outline: as §1

Chain of human glucagon receptor (hGCGR) (P47871 26-477): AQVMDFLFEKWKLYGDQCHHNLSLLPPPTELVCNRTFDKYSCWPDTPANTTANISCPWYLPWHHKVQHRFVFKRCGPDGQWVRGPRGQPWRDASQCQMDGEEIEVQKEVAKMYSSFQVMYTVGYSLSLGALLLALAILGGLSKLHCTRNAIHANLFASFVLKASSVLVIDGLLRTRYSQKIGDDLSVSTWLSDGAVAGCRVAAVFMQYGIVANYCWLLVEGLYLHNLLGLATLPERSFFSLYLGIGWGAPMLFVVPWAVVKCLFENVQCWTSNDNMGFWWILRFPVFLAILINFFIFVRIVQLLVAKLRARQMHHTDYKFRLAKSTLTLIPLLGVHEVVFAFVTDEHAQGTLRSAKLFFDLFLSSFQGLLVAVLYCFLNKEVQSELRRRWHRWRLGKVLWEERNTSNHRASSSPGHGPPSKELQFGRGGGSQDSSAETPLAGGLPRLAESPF
Chain of human GLP-1 receptor (hGLP-1R) (P43220 24-463): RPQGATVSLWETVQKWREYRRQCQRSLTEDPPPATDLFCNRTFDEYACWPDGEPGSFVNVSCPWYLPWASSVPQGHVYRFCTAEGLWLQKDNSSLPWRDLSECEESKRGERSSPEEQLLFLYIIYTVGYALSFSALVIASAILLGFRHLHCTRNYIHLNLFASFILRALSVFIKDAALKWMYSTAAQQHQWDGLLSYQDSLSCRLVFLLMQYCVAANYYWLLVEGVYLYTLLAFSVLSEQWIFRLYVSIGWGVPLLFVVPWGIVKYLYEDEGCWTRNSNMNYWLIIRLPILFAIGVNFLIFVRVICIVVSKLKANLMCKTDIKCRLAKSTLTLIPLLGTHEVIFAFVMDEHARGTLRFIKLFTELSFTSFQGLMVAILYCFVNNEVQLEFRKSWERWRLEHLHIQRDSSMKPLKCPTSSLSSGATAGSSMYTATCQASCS

| Compound | EC50 [1] | EC50 [2] | % Relative Potency Ratio [2] |
| --- | --- | --- | --- |
| CC(C)C[C@H](NC(=O)[C@H](Cc1c[nH]c2ccccc12)NC(=O)[C@H](CCCNC(=N)N)NC(=O)[C@@H](NC(=O)[C@H](Cc1ccccc1)NC(=O)[C@H](CC(=O)O)NC(=O)[C@H](CCC(N)=O)NC(=O)[C@H](C)NC(=O)[C@H](CCCNC(=N)N)NC(=O)[C@H](CCCCNC(=O)COCCOCCNC(=O)COCCOCCNC(=O)CC[C@H](NC(=O)CCCCCCCCCCCCCCCCC(=O)O)C(=O)O)NC(=O)[C@@H](NC(=O)[C@H](CC(=O)O)NC(=O)[C@H](CC(C)C)NC(=O)[C@](C)(Cc1ccccc1)NC(=O)[C@H](CCCCN)NC(=O)[C@H](CO)NC(=O)[C@@H](NC(=O)[C@H](CC(=O)O)NC(=O)[C@H](CO)NC(=O)[C@@H](NC(=O)[C@H](Cc1ccccc1)NC(=O)[C@@H](NC(=O)CNC(=O)[C@H](CCC(N)=O)NC(=O)C(C)(C)NC(=O)[C@@H](N)Cc1c[nH]cn1)[C@@H](C)O)[C@@H](C)O)C(C)C)[C@@H](C)O)C(C)C)C(=O)N[C@@H](CC(C)C)C(=O)NC(C)(C)C(=O)N[C@@H](CCC(=O)O)C(=O)O [Peptide 192] (H-H[Aib]QGTFTSDVSK[αMeF]LDTK([AEEA-AEEA-γGlu-C18 diacid])RAQDFVRWLL[Aib]E-OH; N-terminus assumed) | 0.227 nM | 0.108 nM | 4.2 |
| CC[C@H](C)[C@H](NC(=O)[C@H](CC(C)C)NC(=O)[C@H](Cc1c[nH]c2ccccc12)NC(=O)[C@H](CCCNC(=N)N)NC(=O)[C@@H](NC(=O)[C@H](Cc1ccccc1)NC(=O)[C@H](CC(=O)O)NC(=O)[C@H](CCC(N)=O)NC(=O)[C@H](C)NC(=O)[C@H](CCCNC(=N)N)NC(=O)[C@H](CCCCNC(=O)COCCOCCNC(=O)COCCOCCNC(=O)CC[C@H](NC(=O)CCCCCCCCCCCCCCCCC(=O)O)C(=O)O)NC(=O)[C@H](CO)NC(=O)[C@H](CC(=O)O)NC(=O)[C@H](CC(C)C)NC(=O)[C@](C)(Cc1ccccc1)NC(=O)[C@H](CCCCN)NC(=O)[C@H](CO)NC(=O)[C@@H](NC(=O)[C@H](CC(=O)O)NC(=O)[C@H](CO)NC(=O)[C@@H](NC(=O)[C@H](Cc1ccccc1)NC(=O)[C@@H](NC(=O)CNC(=O)[C@H](CCC(N)=O)NC(=O)C(C)(C)NC(=O)[C@@H](N)Cc1c[nH]cn1)[C@@H](C)O)[C@@H](C)O)C(C)C)C(C)C)C(=O)NC(C)(C)C(=O)N[C@@H](CCC(=O)O)C(=O)O [Peptide 196] (H-H[Aib]QGTFTSDVSK[αMeF]LDSK([AEEA-AEEA-γGlu-C18 diacid])RAQDFVRWLI[Aib]E-OH; N-terminus assumed) | 0.24 nM | 0.027 nM | 17.6 |
| CC[C@H](C)[C@H](NC(=O)[C@H](Cc1ccccc1)NC(=O)[C@H](CC(=O)O)NC(=O)[C@H](CCCNC(=N)N)NC(=O)[C@H](C)NC(=O)[C@H](CCCNC(=N)N)NC(=O)[C@H](CCCCNC(=O)COCCOCCNC(=O)COCCOCCNC(=O)CC[C@H](NC(=O)CCCCCCCCCCCCCCCCC(=O)O)C(=O)O)NC(=O)[C@@H](NC(=O)[C@H](CC(=O)O)NC(=O)[C@H](CC(C)C)NC(=O)[C@](C)(Cc1ccccc1)NC(=O)[C@H](CCCCN)NC(=O)[C@H](CO)NC(=O)[C@@H](NC(=O)[C@H](CC(=O)O)NC(=O)[C@H](CO)NC(=O)[C@@H](NC(=O)[C@H](Cc1ccccc1)NC(=O)[C@@H](NC(=O)CNC(=O)[C@H](CCC(N)=O)NC(=O)C(C)(C)NC(=O)[C@@H](N)Cc1c[nH]cn1)[C@@H](C)O)[C@@H](C)O)C(C)C)[C@@H](C)O)C(=O)N[C@@H](C)C(=O)N[C@@H](Cc1c[nH]c2ccccc12)C(=O)N[C@@H](CC(C)C)C(=O)N[C@@H](CC(C)C)C(=O)NC(C)(C)C(=O)N[C@@H](CCC(=O)O)C(=O)O [Peptide 198] (H-H[Aib]QGTFTSDVSK[αMeF]LDTK([AEEA-AEEA-γGlu-C18 diacid])RARDFIAWLL[Aib]E-OH; N-terminus assumed) | 0.302 nM | 0.212 nM | 2.8 |

Stronger by EC50 [1], values ahead:

| EC50 [1] | EC50 [2] | % Relative Potency Ratio [2] | Compound |
| --- | --- | --- | --- |
| 0.112 nM | 0.064 nM | 3.5 | CC(C)C[C@H](NC(=O)[C@H](Cc1c[nH]c2ccccc12)NC(=O)[C@H](CCCNC(=N)N)NC(=O)[C@@H](NC(=O)[C@H](Cc1ccccc1)NC(=O)[C@H](CC(=O)O)NC(=O)[C@H](CCCNC(=N)N)NC(=O)[C@H](C)NC(=O)[C@H](CCCNC(=N)N)NC(=O)[C@H](CCCCNC(=O)COCCOCCNC(=O)COCCOCCNC(=O)CC[C@H](NC(=O)CCCCCCCCCCCCCCCCC(=O)O)C(=O)O)NC(=O)[C@@H](NC(=O)[C@H](CC(=O)O)NC(=O)[C@H](CC(C)C)NC(=O)[C@](C)(Cc1ccccc1)NC(=O)[C@H](CCCCN)NC(=O)[C@H](CO)NC(=O)[C@@H](NC(=O)[C@H](CC(=O)O)NC(=O)[C@H](CO)NC(=O)[C@@H](NC(=O)[C@H](Cc1ccccc1)NC(=O)[C@@H](NC(=O)CNC(=O)[C@H](CCC(N)=O)NC(=O)C(C)(C)NC(=O)[C@@H](N)Cc1c[nH]cn1)[C@@H](C)O)[C@@H](C)O)C(C)C)[C@@H](C)O)C(C)C)C(=O)N[C@@H](CC(C)C)C(=O)NC(C)(C)C(=O)N[C@@H](CCC(=O)O)C(=O)O [Peptide 197] (H-H[Aib]QGTFTSDVSK[αMeF]LDTK([AEEA-AEEA-γGlu-C18 diacid])RARDFVRWLL[Aib]E-OH; N-terminus assumed) |
| 0.18 nM | 0.0316 nM | 11.3 | CC[C@H](C)[C@H](NC(=O)[C@H](Cc1ccccc1)NC(=O)[C@H](CC(=O)O)NC(=O)[C@H](CCCNC(=N)N)NC(=O)[C@H](C)NC(=O)[C@H](CCCNC(=N)N)NC(=O)[C@H](CCCCNC(=O)COCCOCCNC(=O)COCCOCCNC(=O)CC[C@H](NC(=O)CCCCCCCCCCCCCCCCC(=O)O)C(=O)O)NC(=O)[C@@H](NC(=O)[C@H](CC(=O)O)NC(=O)[C@H](CC(C)C)NC(=O)[C@](C)(Cc1ccccc1)NC(=O)[C@H](CCCCN)NC(=O)[C@H](CO)NC(=O)[C@@H](NC(=O)[C@H](CC(=O)O)NC(=O)[C@H](CO)NC(=O)[C@@H](NC(=O)[C@H](Cc1ccccc1)NC(=O)[C@@H](NC(=O)CNC(=O)[C@H](CCC(N)=O)NC(=O)C(C)(C)NC(=O)[C@@H](N)Cc1c[nH]cn1)[C@@H](C)O)[C@@H](C)O)C(C)C)[C@@H](C)O)C(=O)N[C@@H](C)C(=O)N[C@@H](Cc1c[nH]c2ccccc12)C(=O)N[C@@H](CC(C)C)C(=O)N[C@@H](CC(C)C)C(=O)N[C@@H](CCC(=O)O)C(=O)NC(C)(C)C(=O)NCC(=O)O [Peptide 199] (H-H[Aib]QGTFTSDVSK[αMeF]LDTK([AEEA-AEEA-γGlu-C18 diacid])RARDFIAWLLE[Aib]G-OH) |
| 0.0977 nM | 0.0227 nM | 8.5 | CC(C)C[C@H](NC(=O)[C@H](Cc1c[nH]c2ccccc12)NC(=O)[C@H](C)NC(=O)[C@@H](NC(=O)[C@H](Cc1ccccc1)NC(=O)[C@H](CC(=O)O)NC(=O)[C@H](CCCNC(=N)N)NC(=O)[C@H](C)NC(=O)[C@H](CCCNC(=N)N)NC(=O)[C@H](CCCCNC(=O)COCCOCCNC(=O)COCCOCCNC(=O)CC[C@H](NC(=O)CCCCCCCCCCCCCCCCC(=O)O)C(=O)O)NC(=O)[C@@H](NC(=O)[C@H](CC(=O)O)NC(=O)[C@H](CC(C)C)NC(=O)[C@](C)(Cc1ccccc1)NC(=O)[C@H](CCCCN)NC(=O)[C@H](CO)NC(=O)[C@@H](NC(=O)[C@H](CC(=O)O)NC(=O)[C@H](CO)NC(=O)[C@@H](NC(=O)[C@H](Cc1ccccc1)NC(=O)[C@@H](NC(=O)CNC(=O)[C@H](CCC(N)=O)NC(=O)C(C)(C)NC(=O)[C@@H](N)Cc1c[nH]cn1)[C@@H](C)O)[C@@H](C)O)C(C)C)[C@@H](C)O)C(C)C)C(=O)N[C@@H](CC(C)C)C(=O)N[C@@H](CCC(=O)O)C(=O)NC(C)(C)C(=O)NCC(=O)O [Peptide 200] (H-H[Aib]QGTFTSDVSK[αMeF]LDTK([AEEA-AEEA-γGlu-C18 diacid])RARDFVAWLLE[Aib]G-OH) |
| 0.183 nM | 0.0227 nM | 15.9 | CC(C)C[C@H](NC(=O)[C@H](Cc1c[nH]c2ccccc12)NC(=O)[C@H](C)NC(=O)[C@@H](NC(=O)[C@H](Cc1ccccc1)NC(=O)[C@H](CC(=O)O)NC(=O)[C@H](CCCNC(=N)N)NC(=O)[C@H](C)NC(=O)[C@H](CCCNC(=N)N)NC(=O)[C@H](CCCCNC(=O)COCCOCCNC(=O)COCCOCCNC(=O)CC[C@H](NC(=O)CCCCCCCCCCCCCCCCC(=O)O)C(=O)O)NC(=O)[C@@H](NC(=O)[C@H](CC(=O)O)NC(=O)[C@H](CC(C)C)NC(=O)[C@](C)(Cc1ccccc1)NC(=O)[C@H](CCCCN)NC(=O)[C@H](CO)NC(=O)[C@@H](NC(=O)[C@H](CC(=O)O)NC(=O)[C@H](CO)NC(=O)[C@@H](NC(=O)[C@H](Cc1ccccc1)NC(=O)[C@@H](NC(=O)CNC(=O)[C@H](CCC(N)=O)NC(=O)C(C)(C)NC(=O)[C@@H](N)Cc1c[nH]cn1)[C@@H](C)O)[C@@H](C)O)C(C)C)[C@@H](C)O)C(C)C)C(=O)N[C@@H](CCC(=O)O)C(=O)N[C@@H](C)C(=O)NC(C)(C)C(=O)NCC(=O)O [Peptide 201] (H-H[Aib]QGTFTSDVSK[αMeF]LDTK([AEEA-AEEA-γGlu-C18 diacid])RARDFVAWLEA[Aib]G-OH) |

Reference: patent US20250353891A1 (MEDIMMUNE LIMITED, priority 2022, published 2025)
